Measurements: patent US9943569B2, “Method for preventing or reducing postoperative pulmonary complications” (OSAKA UNIVERSITY, priority 2015, dated 2018)

Legend:
Assay type in all cases: in vivo, human
[1] = system: patients undergoing esophagectomy; assay: SIRS duration after esophagectomy, randomized placebo-controlled phase II study; conditions: ghrelin 0.5 μg/kg/h continuous i.v. infusion for 5 days, n=20
Experimental: Forty patients undergoing esophagectomy were randomly assigned to either the ghrelin group (n=20), which received continuous infusion of ghrelin (0.5 μg/kg/h) for 5 days, or the placebo group (n=20), which received pure saline for 5 days. The primary endpoint was SIRS duration. The secondary endpoints were the incidence of postoperative complications, time of a negative nitrogen balance, changes in body weight and composition, and levels of inflammatory markers, including C-reactive protein (CRP) and interleukin-6 (IL-6).
Forty patients with primary esophageal cancer who underwent esophagectomy were selected to participate in a randomized, placebo-controlled phase II study. The patients were selected based on the following eligibility criteria: (1) thoracic esophageal cancer treated by performing radical esophagectomy with gastric tube reconstruction; (2) age 20 to 75 years; (3) adequate functioning of major organs; (4) no other active malignancies; and (5) provision of written informed consent. […] The study was performed in a double-blind manner, and an independent researcher assessed outcomes.
The primary endpoint of this study was SIRS duration. […] The same amount of ghrelin was administered via intravenous infusion during the 5 days of treatment; the dose was calculated on the basis of body weight on the day before surgery. […]

C-reactive protein (CRP) = assay: Postoperative change in serum CRP; conditions: n=20
Experimental: (§1) The primary endpoint of this study was SIRS duration. The secondary endpoints were postoperative complications, serum C-reactive protein (CRP) and IL-6 levels, time required to attain a positive nitrogen balance, and changes in body weight and body composition. Postoperative complications were defined as adverse events caused by surgery. Patients received an intravenous continuous infusion of ghrelin (0.5 μg/kg/h) or placebo (pure saline) for 5 days postoperatively. Ghrelin was diluted to a final volume of 48 mL with saline, and the solution was administered at a rate of 2 mL/h by using an infusion pump through a central venous catheter inserted into the right subclavian vein. The same amount of ghrelin was administered via intravenous infusion during the 5 days of treatment; the dose was calculated on the basis of body weight on the day before surgery. Patients in the placebo group received the corresponding infusion containing pure saline using same procedure.
Blood sampling was performed at the following 7 time points: before surgery; 2 hours after initiation of surgery (during thoracotomy); 4 hours after initiation of surgery (during laparotomy); and on PODs 1, 3, 7, and 10. Complete blood count was performed every day for at least 10 PODs. If the leukocyte count was not within the normal range on POD10, complete blood counts were performed daily until it was within the normal range for 3 consecutive days. SIRS was diagnosed according to the criteria proposed by the American College of Chest Physicians/Society of Critical Care Medicine Consensus Conference^32 and when 2 or more of the following criteria were present: (1) body temperature less than 36° C. or more than 38° C.; (2) heart rate more than 90 beats per minute; (3) tachypnea with more than 20 breaths per minute or an arterial partial pressure of carbon dioxide less than 32 mm Hg; and (4) white blood cell count less than 4000 cells/mm^3, >12,000 cells/mm^3, or an immature (band) form more than 10%. Postoperative complications were evaluated according to the Clavien-Dindo classification.^33 Grade I required no treatment, grade II required medical therapy, grade Ma required interventions but not general anesthesia, grade Mb required general anesthesia, grade IV represented life-threatening states that required intensive care, and grade V represented death.

[2] = system: patients undergoing esophagectomy; assay: Time required to attain positive nitrogen balance; conditions: ghrelin 0.5 μg/kg/h continuous i.v. for 5 days, n=20
Experimental: as §1

[3] = system: patients undergoing esophagectomy; assay: Changes in body weight and body composition (dual-energy X-ray absorptiometry); conditions: preoperatively vs POD10
Experimental: Dual-energy X-ray absorptiometry (Hologic QDR-2000; Hologic Inc, Waltham, Mass.) was used to assess total body composition, including lean body weight and fat body weight, of all participants.^35 These measurements were performed preoperatively and 10 days postoperatively with the subject in the supine position.
However, in the postoperative test, rapid turnover proteins used as nutritional markers, such as, transthyretin, transferrin, and retinol binding protein, were more highly retained in the ghrelin group than in the placebo group. This finding is consistent with the findings in previous studies that ghrelin prevented nutritional deterioration. […] We compared changes in weight and body composition between the 2 groups. During the study period, changes in body weight were monitored as a percentage of the weight on admission (preoperation).

[4] = system: patients undergoing esophagectomy; assay: Adverse events attributable to ghrelin administration in the phase II study; conditions: during the study period; 0.5 μg/kg/h continuous i.v. for 5 days, n=20
Experimental: as §1
In total, 40 enrolled patients were randomized into either the ghrelin group (20 patients) or the placebo group (20 patients). All patients received the planned dose of ghrelin or placebo during the planned period. […]

[5] = system: patients after esophagectomy; assay: Phase I study of ghrelin administration during the postoperative period after esophagectomy
[6] = dual-energy X-ray absorptiometry

CCCCCCCC(=O)OC[C@H](NC(=O)[C@H](CO)NC(=O)CN)C(=O)N[C@@H](Cc1ccccc1)C(=O)N[C@@H](CC(C)C)C(=O)N[C@@H](CO)C(=O)N1CCC[C@H]1C(=O)N[C@@H](CCC(=O)O)C(=O)N[C@@H](Cc1cnc[nH]1)C(=O)N[C@@H](CCC(N)=O)C(=O)N[C@@H](CCCNC(=N)N)C(=O)N[C@H](C(=O)N[C@@H](CCC(N)=O)C(=O)N[C@@H](CCC(N)=O)C(=O)N[C@@H](CCCNC(=N)N)C(=O)N[C@@H](CCCCN)C(=O)N[C@@H](CCC(=O)O)C(=O)N[C@@H](CO)C(=O)N[C@@H](CCCCN)C(=O)N[C@@H](CCCCN)C(=O)N1CCC[C@H]1C(=O)N1CCC[C@H]1C(=O)N[C@@H](C)C(=O)N[C@@H](CCCCN)C(=O)N[C@@H](CC(C)C)C(=O)N[C@@H](CCC(N)=O)C(=O)N1CCC[C@H]1C(=O)N[C@@H](CCCNC(=N)N)C(=O)O)C(C)C [ghrelin]
SIRS duration [1]: 3.0 ± 2.9 days | Serum CRP (C-reactive protein (CRP); POD1): 6.6 ± 2.0 mg/dL | Serum CRP (C-reactive protein (CRP); POD3): 11.1 ± 6.6 mg/dL | Serum CRP (C-reactive protein (CRP); POD3, listed as Ghrelin): 11.1 ± 6.6 mg/dL | Serum CRP (C-reactive protein (CRP); POD7): 4.3 ± 3.6 mg/dL | Serum CRP (C-reactive protein (CRP); POD7, listed as Ghrelin): 4.3 ± 3.6 mg/dL | Serum CRP (C-reactive protein (CRP); POD10): 2.1 ± 2.3 mg/dL | Serum CRP (C-reactive protein (CRP); POD10, listed as Ghrelin): 2.1 ± 2.3 mg/dL | Serum CRP (C-reactive protein (CRP); Preoperative (baseline)): 0.3 ± 0.5 mg/dL | time required to attain positive nitrogen balance [2]: 2.6 ± 1.6 days | percent decrease in total weight [3]: −3.5±2.7% | percent decrease in body fat weight [3, 6]: −3.2±5.0% | percent decrease in lean body weight [3, 6]: −4.2%±3.0 | adverse events attributable to ghrelin administration [4]: No adverse events attributable to ghrelin administration were observed | systemic inflammation relative to conventional management protocols without ghrelin [5]: tended to be suppressed | effect on fundamental vital signs (blood pressure, heart rate, urine output, pulmonary and liver function) ([5]; postoperative intensive care management): did not affect fundamental vital signs
